Results from patent US4432982A, “Polycyclic compounds substituted on the A-ring, pharmaceutical compositions containing them, and methods of treating psoriasis with them” (Richter Gedeon Vegyeszeti Gyar Rt., priority 1981, dated 1984).
Structures can show the parent of a compound that is named as a salt.

Test system: phosphodiesterase isolated from cattle heart
Assay: Phosphodiesterase inhibition, radioisotope method with 3H-c-AMP, enzyme isolated from cattle heart
Type: biochemical
Conditions: control without inhibitor = 100%, 20 minutes incubation
Method: The model experiments were performed by means of phosphodiesterase isolated from animal tissues (rat brain, cattle brain, cattle heart). The enzyme was isolated by the technique of J. Schroder and H. V. Richenberg [Biochem. Biophys. […] The measurement was first carried out without the inhibiting substance and then in the presence of one of the compounds of the general formula (I) as an inhibiting agent, after an incubation period of 20 minutes [N.S. Arch. […] A solution of papaverine used as reference material was added to the enzyme preparate in an analogous manner.
The activity of the solutions containing the compounds of formula (I) and papaverine was expressed in percents of the control (enzyme solution without any inhibitor substance, the activity thereof was taken 100%).

[1] = 1 × 10^-5 mole/lit. test compound, 10 µM
[2] = 5 × 10^-5 mole/lit. test compound, 50 µM
[3] = 5 × 10^-6 mole/lit. test compound, 5 µM

Row | SMILES | effect of the test compound on enzyme activity in % of the control [1] [%] | effect of the test compound on enzyme activity in % of the control [2] [%] | effect of the test compound on enzyme activity in % of the control [3] [%]
1 | CC[C@@]12C=C(COC(=O)c3cc(OC)c(OC)c(OC)c3)n3c4c(c5cc(OC)ccc53)CCN(CCC1)[C@H]42 [10-Methoxy-apovincaminol-3',4',5'-trimethoxybenzoate] | 40.3 | 21.3 | 59.1
2 | CC[C@@]12C=C(COC(=O)c3cc(OC)c(OC)c(OC)c3)n3c4c(c5cc(Br)ccc53)CCN(CCC1)[C@H]42 [10-Bromo-apovincaminol-3',4',5'-trimethoxy-benzoate] | 61.8 | – | 67.8
3 | CC[C@@]12C=C(COC(=O)c3cc(OC)c(OC)c(OC)c3)n3c4c(c5ccc(Br)cc53)CCN(CCC1)[C@H]42 [(-)-11-Bromo-apovincaminol-3',4',5'-trimethoxy-benzoate hydrochloride] | 21.8 | 21.8 | 31.9
4 | COc1ccc(Cc2nccc3cc(OC)c(OC)cc23)cc1OC [Papaverine HCl, reference compound] | 82.7 | 43.7 | 91.3
